From patent publication US20260098027A1, “PHARMACEUTICALLY ACCEPTABLE SALT AND CRYSTAL FORM OF TETRAHYDRONAPHTHALENE DERIVATIVE, AND PREPARATION METHOD” (JIANGSU HENGRUI PHARMACEUTICALS CO., LTD., priority 2022, published 2026)
Structures can show the parent of a compound that is named as a salt. Blank lines part the entries; values can stand above or below the compound they belong to.

Tests used:
[1] = test system: MCF7 cells; assay: Inhibitory effect on MCF7 cell proliferation (CellTiter-Glo); assay type: cell-based; conditions: Homo sapiens, 144 h, 6 days incubation, luminescence cell viability readout
Description: MCF7 cells (TCHu74, National Collection of Authenticated Cell Cultures) were cultured in an MEM (GE Healthcare, SH30024.01) complete culture medium containing 10% fetal bovine serum. On day 1 of the experiment, MCF7 cells were seeded into a 96-well plate at a density of 3,000 cells/well using an MEM culture medium containing 2% fetal bovine serum, with each well containing 135 μL of cell suspension. The plate was incubated overnight in a 37° C., 5% CO2 cell incubator. The next day, the test compound, at different concentrations in the culture medium, was added at 15 μL/well. The final concentrations of the compound were 9 concentration points obtained by 4-fold serial dilution from 1000 nM. A blank control containing 0.5% DMSO was set up. The plate was incubated in a 37° C., 5% CO2 cell incubator for 6 days. On day 8, the 96-well cell culture plate was taken out, and CellTiter-Glo® Luminescent Cell Viability Assay (Promega, G7573) was added at 75 µL/well. After the plate was left at room temperature for 10 min, luminescence signal values were measured using a multilabel microplate reader (PerkinElmer, VICTOR 3).

[2] = test system: MCF-7 (Y537S) human breast cancer cells xenograft tumors; assay: Efficacy against MCF-7 (Y537S) xenograft tumors in BEIGE SCID mice; assay type: in vivo; conditions: for Mean tumor volume D0: D0 (day of grouping, before dosing)
Description: To evaluate the inhibitory effect of compound I on the growth of xenograft tumors of MCF-7 (Y537S) human breast cancer cells in BEIGE SCID mice.
Compound I. A 2% Tween 80+98% PEG-400 solution was used.
Test animals: female BEIGE SCID mice, purchased from Beijing Vital River Laboratory Animal Technology Co., Ltd. (certificate No. SCXK (Beijing) 2016-0006), weighing about 19 g on purchase.
Housing conditions: 5 animals/cage, a 12/12-hour light/dark cycle, a constant temperature of 23±1° C. with humidity at 50 to 60%, ad libitum access to food and water.
After acclimatization, BEIGE SCID mice were grouped as follows:
MCF-7 (Y537S) cells in the logarithmic growth phase were subcutaneously inoculated into the right flank of female BEIGE SCID mice at 1.0×10^7/mouse/200 μL (containing 100 μL of matrigel). After 18 days, when the tumor volume of tumor-bearing mice reached about 170 mm^3, the mice were randomly divided into 4 groups of 8 according to tumor volume and body weight: a vehicle control group, a compound I 5 mpk group, a compound I 15 mpk group, and a compound I 45 mpk group. The day of grouping was set as Do, and intragastric administration was started and performed once a day for 28 days. The 28th day post-dose was set as D28 (Table 1). The tumor volume of tumor-bearing mice was measured with a vernier caliper twice a week.
All data were plotted and statistically analyzed using Excel and GraphPad Prism 8 software.
The calculation formula for tumor volume (V) was: V=½×a×b2, where a and b represent length and width, respectively.
Relative tumor proliferation rate T/C (%)=(T−T0)/(C−C0)×100(%), where T and C represent the tumor volumes of the treatment groups and the control group at the end of the experiment; T0 and C0 represent the tumor volumes at the beginning of the experiment.
Tumor growth inhibition rate TGI (%)=1−T/C (%). If TGI (%) exceeds 100%, its specific value will not be shown; instead, it will be represented as >100%. Tumor regression (%)=[(T0−T)/T0]×100(%).

[3] = Long-term/accelerated stability; assay type: physicochemical
Description: Hydrochloride crystal form I was left to stand under 25° C./60% RH and 40° C./75% RH conditions to test its stability.

[4] = Influencing factor stability (light, high temperature, high humidity); assay type: physicochemical
Description: Samples of hydrochloride crystal form I were spread out in open vessels and subjected to 1-month stability tests under light exposure (4500 Lux), high temperature (40° C. and 60° C.), and high humidity (RH 75% and RH 92.5%) conditions.

[5] = DVS (dynamic vapor sorption) hygroscopicity test; assay type: physicochemical
Description: DVS refers to dynamic vapor sorption: Surface Measurement Systems instrinsic was adopted; the humidity started at 50%, the humidity range of the investigation was 0%-95%, and the humidity was increased in increments of 10%; the criterion was that each gradient mass change dM/dT is ≤0.002%, TMAX 360 min, two cycles.

IC50 [1]: 0.59 nM
Number of remaining animals/group ([2]; 5 mpk i.g. qd/28 d): 8/8
Number of remaining animals/group ([2]; 15 mpk i.g. qd/28 d): 8/8
Number of remaining animals/group ([2]; 45 mpk i.g. qd/28 d): 8/8
SMILES: CC(C)C[C@H]1CCc2cc(O)ccc2[C@H]1c1ccc(N2CCC(CN3CCN(c4ccc5c(c4)CN([C@H]4CCC(=O)NC4=O)C5=O)CC3)CC2)cc1 [Compound I, (S)-3-(5-(4-((1-(4-((1R,2R)-6-hydroxy-2-isobutyl-1,2,3,4-tetrahydronaphthalen-1-yl)phenyl)piperidin-4-yl)methyl)piperazin-1-yl)-1-oxoisoindolin-2-yl)piperidine-2,6-dione]
Mean tumor volume D0 ([2]; 5 mpk i.g. qd/28 d): 170.2 mm^3
Mean tumor volume D28 ([2]; 5 mpk i.g. qd/28 d): 305.0 mm^3
TGI (%) D28 ([2]; 5 mpk i.g. qd/28 d): 72%
Mean tumor volume D0 ([2]; 15 mpk i.g. qd/28 d): 168.2 mm^3
Mean tumor volume D28 ([2]; 15 mpk i.g. qd/28 d): 219.7 mm^3
TGI (%) D28 ([2]; 15 mpk i.g. qd/28 d): 89%
Mean tumor volume D0 ([2]; 45 mpk i.g. qd/28 d): 168.6 mm^3
Mean tumor volume D28 ([2]; 45 mpk i.g. qd/28 d): 192.0 mm^3
TGI (%) D28 ([2]; 45 mpk i.g. qd/28 d): 95%

Purity % ([3]; 25° C./60% RH, 7 days): 99.0%
Purity % ([3]; 25° C./60% RH, 14 days): 99.0%
Purity % ([3]; 25° C./60% RH, 30 days): 99.0%
Purity % ([3]; 25° C./60% RH, 60 days): 99.0%
Purity % ([3]; 40° C./75% RH, 7 days): 99.0%
Purity % ([3]; 40° C./75% RH, 14 days): 99.0%
Purity % ([3]; 40° C./75% RH, 30 days): 99.0%
Purity % ([3]; 40° C./75% RH, 60 days): 98.9%
Purity % ([3]; Initial, 0 days): 99.0%
physical and chemical stabilities (conclusion) ([3]; standing under long-term accelerated conditions for 2 months): good physical and chemical stabilities
Purity % ([4]; 40° C., 7 days, open vessel): 98.6%
Purity % ([4]; 40° C., 14 days, open vessel): 98.4%
Purity % ([4]; 40° C., 30 days, open vessel): 97.9%
Purity % ([4]; 60° C., 7 days, open vessel): 98.2%
Purity % ([4]; 60° C., 14 days, open vessel): 97.6%
Purity % ([4]; 60° C., 30 days, open vessel): 96.8%
Purity % ([4]; 75% RH, 7 days, open vessel): 99.0%
Purity % ([4]; 75% RH, 14 days, open vessel): 98.9%
Purity % ([4]; 75% RH, 30 days, open vessel): 99.0%
Purity % ([4]; 93% RH, 7 days, open vessel): 99.0%
Purity % ([4]; 93% RH, 14 days, open vessel): 98.9%
Purity % ([4]; 93% RH, 30 days, open vessel): 98.7%
Purity % ([4]; 4500 Lux, 7 days, open vessel): 98.6%
Purity % ([4]; 4500 Lux, 14 days, open vessel): 98.1%
Purity % ([4]; 4500 Lux, 30 days, open vessel): 97.8%
Purity % ([4]; Initial, 0 days): 99.0%
physical and chemical stabilities (conclusion) ([4]; standing 1 month under conditions other than the high temperature and light exposure conditions): good physical and chemical stabilities
hygroscopic weight gain ([5]; accelerated experimental conditions, 70% RH): about 7.3%
hygroscopic weight gain ([5]; extreme conditions, 90% RH): about 8.9%
hygroscopic weight gain ([5]; normal storage conditions, 25° C. and 60% RH): about 6.3%
crystal form after the DVS tests ([5]; sample re-identified after DVS): its crystal form did not change
SMILES: CC(C)C[C@H]1CCc2cc(O)ccc2[C@H]1c1ccc(N2CCC(CN3CCN(c4ccc5c(c4)CN([C@H]4CCC(=O)NC4=O)C5=O)CC3)CC2)cc1 [hydrochloride crystal form I, (S)-3-(5-(4-((1-(4-((1R,2R)-6-hydroxy-2-isobutyl-1,2,3,4-tetrahydronaphthalen-1-yl)phenyl)piperidin-4-yl)methyl)piperazin-1-yl)-1-oxoisoindolin-2-yl)piperidine-2,6-dione]
